In patent publication US8747830B2, “Wound repair composition and method” (Queensland University of Technology, priority 2007, dated 2014):

Test system: MMP's (particularly MMP-9) in chronic wound fluid
Settings: inhibitor 2 mM, 37° C., 24 hours; % of untreated control remaining
Method: Collagenase sensitivity was identified as clear bands against a dark background in zymograms and could be quantitated by densitometric analysis. […] Lanes 1-6 are chronic wound fluid samples from six different patients with 500 ng of total protein loaded per sample. […] Electrophoresis was performed at 4° C. under Laemmli conditions. […] After incubation the gels were stained appropriately and protease activity was visualised as clear (unstained) bands.

Structure (SMILES): C=C(C)C(=O)NCCCC(O)(P(=O)(O)O)P(=O)(O)O [alendronate-methacrylate conjugate]
- type I collagen degradation relative to that seen in the untreated control (densitometry, FIG. 4): 30%-40%
